According to US6448450B1, “1-(3,5-dimethoxyphenyl)-2-(4-hydroxyphenyl)-ethylene for diabetes treatment” (Calyx Therapeutics, Inc., priority 1998, dated 2002):

Experiments:
[1] = system: STZ induced diabetic rats; set-up: blood glucose BEFORE / blood glucose AFTER: unit not given here; conditions: Pter. 20 mg/kg, metformin 30 mg/kg, cited from earlier work; for blood glucose AFTER: after treatment; for blood glucose BEFORE: before treatment
[2] = system: spontaneously diabetic (db/db) mice; test: Blood glucose in spontaneously diabetic (db/db) mice; type: in vivo; conditions: 20 mg/kg/bw/ip in propyleneglycol, within 24 hours
Protocol: Six spontaneously diabetic (db/db) mice were divided into two groups of three each. One test group receives the diphenylethylene (20 mg/kg/bw/ip) in propyleneglycol. The control group received an equal volume of propyleneglycol. Soon after the administration of the test materials, blood glucose levels were monitored at 1 hour (see FIG. 2A) and 24 hours (see FIG. 2B) after treatment. The diphenylethylene reduced the blood glucose level by over 50 percent within 24 hours, thus establishing its antihyperglycemic effect.

[3] = system: STZ induced diabetic rats; test: Effect on streptozotocin-induced diabetic rats, comparison with metformin; type: in vivo; conditions: 20 mg/kg vs metformin 30 mg/kg
Protocol: (§1) Streptozotocin (STZ) induced diabetic rats were made by injecting STZ (40 mg/kg/bw) intravenously. Following verification of blood glucose levels after 72 hours, diabetic rats showing fasting blood glucose levels above 200 mg/dl were divided into two groups. The diphenylethylene was administered to one group in a dose of 20 mg/kg/bw in propyleneglycol. The control group received only propyleneglycol. Soon after the administration of the compound, glucose tolerance testing was conducted by a glucose load of 2 g/kg/bw and blood glucose levels were monitored at zero, 30, 60, 120 and 180 minutes by milking the tail of the rats.
The same test was conducted on STZ induced diabetic rats comparing the diphenylethylene with the commercial product metformin. The diphenylethylene was administered at a dose of 20 mg/kg and metformin was administered at the dosage of 30 mg/kg.

[4] = system: Streptozotocin (STZ) induced diabetic rats; test: Glucose tolerance test in STZ induced diabetic rats; type: in vivo; conditions: 20 mg/kg/bw in propyleneglycol, glucose load 2 g/kg/bw, monitored 0-180 minutes, FIG. 1
Protocol: as §1

[5] = cited from earlier work

SMILES	% CHANGE of blood glucose [1]	blood glucose AFTER [1]	blood glucose BEFORE [1]	reduction of blood glucose level [2]	glucose levels compared with the commercial product (metformin) [3]	blood glucose levels versus control group after glucose load [4]	water solubility [5]
CN(C)C(=N)N=C(N)N [Metformin, metformin, reference compound]	−48%	188 ± 36	358 ± 24	–	–	–	–
COc1cc(/C=C/c2ccc(O)cc2)cc(OC)c1 [diphenylethylene, 1-(3,5-dimethoxyphenyl)-2-(4-hydroxyphenyl)ethylene]	−42%	219 ± 48	377 ± 37	over 50%	equivalent to those obtained by the commercial product	stayed consistently below the blood glucose levels in the control group	–
COc1cc(/C=C/c2ccc(O)cc2)cc(OC)c1 [pterostilbene, 3,5-dimethoxy-4′-hydroxy-trans-stilbene]	–	–	–	–	–	–	water insoluble
